Experimental data reported in patent publication US6037337A (priority 1994, dated 2000).

Columns and labels:
[1] = system: MatB subline selected for resistance to nitrogen mustards; test: Melphalan resistance of MatB subline in vivo; set-up: species or system rat
WBC = test: Bone marrow suppression, WBC counts; type: in vivo, Fischer (F344) rat; settings: for myelosuppression (WBC): 1 week after 125 mg/kg i.v.
Method: (§1) FIGS. 1A and 1B show peripheral blood counts obtained in tumor-bearing rats that received saline or ifosfamide treatment. […] There were 3-5 animals in each group. The following abbreviations etc. apply:
(§2) Determination of Myelotoxicity
(§3) For the studies of myelotoxicity, at least three animals/groups had blood obtained by cardiac puncture with a 23-gauge needle. The samples were heparinized and both WBC and platelet counts were determined using a Coulter Counter.
(§4) Measurements were made prior to and 1 week after i.v. injection of 125 mg/kg of (R,S)-, (R)-, or (S)-ifosfamide. […] In the presence of a tumor, the effects of a colony-stimulating factor are evidenced by higher WBC even prior to drug administration. Because the WBC progressively rises over time with exposure to the tumor, the intergroup variation in absolute WBC relates to differences in time from tumor inoculation to baseline WBC measurement and then drug administration.

[2] = system: non-tumor-bearing Fischer 344 rats; test: Lethality (non-tumor bearing), within 7-10 days after administration; type: in vivo, Fischer 344 rat
Method: Lethality (Non-Tumor Bearing)
The toxicity was assessed by lethality within 7-10 days after administration of (R)-, (S)-, or (R,S)-ifosfamide in non-tumor-bearing Fischer 344 rats.

[3] = CNS toxicity monitoring in 7 female cancer patients; type: in vivo, human; settings: racemate 3 g/m^2, 3 h infusion, mesna
Method: (§5) In a first investigation, the stereoselective urinary excretion of the parent drug, i.e. racemic ifosfamide, and its metabolites, was investigated. This followed a single dose of ifosfamide in 7 female cancer patients, while monitoring for CNS toxicity.
(§6) Patients received a 3 h infusion of ifosfamide (3 g/m^2) with mesna uroprotection, total urine output was collected for 27 h, and urine samples were analysed by enantioselective gas chromatography, as described by Granvil et al, J.Chromatogr. 622:21-31 (1993).
Since ifosfamide was the sole anti-cancer drug administered for the first chemotherapy cycle, toxicity data were not confounded by the effects of other anti-neoplastic agents.

[4] = single dose; cited from earlier work
[5] = system: childhood rhabdomyosarcoma (HxRh28); settings: immunoincompetent female CBA/CaJ mice; cited from earlier work
[6] = system: tumor-bearing F344 rats (MatB rat mammary carcinoma); test: Lethality (tumor-bearing), toxic deaths; type: in vivo; settings: for toxic deaths (of animals treated): tumor-bearing
Method: (§7) In order to help clarify the relative efficacies and toxicities of (S)-IFF and (R)-IFF, the effect of these enantiomers in F344 rats was investigated. Both non-tumor-bearing animals and those bearing a MatB rat mammary carcinoma were used in this study. The relative lethality, bone marrow suppression, weight loss, antitumor activity, and pharmacokinetics were determined for (R)-IFF, (S)-TFF and (R,S)-IFF.
Animal Model and Tumor Cells
(§8) MatB cells are maintained in vitro in α-minimum essential medium (GIBCO, Grand Island, N.Y.) supplemented with 1.3% sodium pyruvate, 2.6% glutamine, 1.3% non-essential amino acids, 10% fetal calf serum, and 100 units/ml gentamicin. Cells are maintained at 37° C. under 5% CO2. A suspension of 5×10^5 cells is injected s.c. into the flanks of female F344 rats weighing 160-200 g. Within 7-10 days, when there is a palpable nodule, the rats are lightly anesthetized with ether, and a single i.v. dose of ifosfamide is injected via the tail vein. The tumor size and animal weights are monitored every other day. On the basis of the conventional rat human dose conversion factor of 1:7 and idealised human body weights and surface areas of 70 kg and 1.5 m^2, the dose of 100 mg/kg in the rat represents approximately 600 mg/m^2 in humans, which is in the general range of clinical single doses, as described by De Kraker, supra. Statistical analysis was performed using an impaired Student's s test or Pearson's .chi.^2 analysis.
There were differences resulting in the presence of a tumor in these animals with regard to the effects of these treatments, and the data are therefore presented for each situation separately.

[7] = cited from earlier work
platelets = test: Bone marrow suppression, platelet counts; type: in vivo, Fischer (F344) rat; settings: for thrombocytopenia: 1 week after 125 mg/kg i.v.
Method: as §1, §2, §3, §4

[8] = Pharmacokinetics in rat plasma (GC-MS), AUC
[9] = Incubation with human liver microsomes, 2 and 3-dechlorometabolites by chiral assays; type: in vitro ADME; settings: for 2 and 3-dechloro metabolites produced, R and S-ifosfamide incubated separately: separate enantiomers, compared with racemate results
[10] = system: MatB rat mammary carcinoma; test: Antitumor efficacy in rats, enantiomer comparison; type: in vivo, Fischer (F344) rat; settings: R-isomer; summary statement
Method: as §7
as §8, with “Statistical analysis was performed using an impaired Student's s test or Pearson's .chi.^2 analysis.” left out

[11] = Weight loss, every-other-day measurements; type: in vivo, F344 rat; settings: 125 mg/kg
Method: as §8
Weight loss was determined by every-other-day measurements of groups of at least three rats.

[12] = CBA/CaJ mice; cited from earlier work
[13] = Analysis of urine of 11 patients after 3 hour infusion of racemic ifosfamide; type: in vivo, human
Method: This is based on the results of the analysis of the urine of 11 patients who received a 3 hour infusion of racemic ifosfamide. Patients had not received chemotherapy for a year and ifosfamide was the only drug administered during the pharmacokinetic study.

[14] = Stereoselective urinary excretion of ifosfamide and metabolites in 7 female cancer patients; type: in vivo, human; settings: patient with severe neurotoxicity vs 6 others
Method: as §5, §6
In patients with excessive N-dechloroethylation, R-ifosfamide could have an improved efficacy/toxicity.

## N[C@@H](Cc1ccc(N(CCCl)CCCl)cc1)C(=O)O [melphalan]
[1]
  resistance to melphalan: at least 4 fold

## O=P1(NCCCl)OCCCN1CCCl (racemic) [(R,S)-IFF, ifosfamide, reference compound]
WBC; tumor-bearing rats
  myelosuppression (WBC): significant myelosuppression
WBC; tumor-free rats
  myelosuppression (WBC): myelosuppression is observed
[2]; 150 mg/kg
  lethality (rats dead of rats treated): 2 of 4
[2]; 100 and 125 mg/kg
  lethality (rats dead of rats treated): 1 of 5
[3]; 7 female patients
  severe neurotoxic syndrome (patients): One patient had a severe neurotoxic syndrome
[3]; one patient
  neurotoxic symptoms: somnolence, dizziness, lethargy, tremors, and hallucinations
[4]
  compound metabolised through the N-dechloroethylation pathway: 15-50%
  drug excreted unchanged: 20-40%
[5]
  efficacy against HxRh28 xenograft, difference between stereoisomers: no statistically significant differences
[6]; 100 mg/kg
  toxic deaths (of animals treated): 0 of 5
[6]; 125 mg/kg
  toxic deaths (of animals treated): 4 of 10
[6]; 150 mg/kg
  toxic deaths (of animals treated): 5 of 5
[7]; oral formulation
  CNS side-effects: major dose-limiting side-effect
[7]; oral vs iv
  dose at which CNS side-effects appeared, oral versus iv: much lower dose
[7]; oral
  chloroacetaldehyde levels after oral dosing: higher levels of chloroacetaldehyde
  metabolism after oral dosing: much more metabolism
platelets; non-tumor-bearing rats
  thrombocytopenia: significant thrombocytopenia

## O=[P@]1(NCCCl)OCCCN1CCCl [(R)-IFF, dexifosfamide]
WBC; summary statement
  myelotoxicity in the Fischer rat: more myelotoxic
WBC; tumor-bearing rats
  myelosuppression (WBC): significant myelosuppression
WBC; tumor-free rats
  myelosuppression (WBC): myelosuppression is observed
[8]; rat
  clearance compared to (S)-IFF: cleared more quickly
[8]; rat plasma, 100 mg/kg i.v.
  AUC, AUCRS versus AUCR: no statistically significant difference
[8]; rat plasma, 100 mg/kg i.v., P<0.01
  AUC, AUCR versus AUCS: statistically significant differences
[8]; rat, inferred from AUC
  metabolism via the activation pathway, compared to (S)-IFF: metabolized to a greater degree
[2]; 150 mg/kg
  lethality (rats dead of rats treated): 2 of 4
[2]; 100 and 125 mg/kg, listed as (R)-ifosfamide
  lethality (rats dead of rats treated): 1 of 5
[5]
  efficacy against HxRh28 xenograft, difference between stereoisomers: no statistically significant differences
[6]; 125 mg/kg, chi-square
  toxic deaths, compared to (R,S)-IFF: no difference
[6]; 125 mg/kg, chi-square, P=0.017
  toxic deaths, (R)-IFF compared to (S)-IFF: significant difference
[6]; 150 mg/kg, P=0.067
  toxic deaths, (R)-IFF versus either (S)-IFF or (R,S)-IFF: no significant difference
[6]; 100 mg/kg
  toxic deaths (of animals treated): 1 of 5
[6]; 125 mg/kg
  toxic deaths (of animals treated): 5 of 10
[6]; 150 mg/kg
  toxic deaths (of animals treated): 5 of 5
[9]
  2 and 3-dechloro metabolites produced, R and S-ifosfamide incubated separately: broadly the same
[10]
  effectiveness in treating the tumors in the rats: trend to the R-isomer being more effective
[11]
  weight loss: appears greatest
  weight loss, statistical significance: significantly so only at one time point
platelets; non-tumor-bearing rats, 125 mg/kg i.v., P<0.05
  platelet suppression compared to (R,S)- or (S)-ifosfamide: greater platelet suppression
platelets; non-tumor-bearing rats
  thrombocytopenia: significant thrombocytopenia

## O=[P@@]1(NCCCl)OCCCN1CCCl [(S)-IFF, levoifosfamide]
WBC; tumor-bearing rats
  myelosuppression (WBC): no such effect after (S)-IFF where the WBC is higher
WBC; tumor-free rats
  myelosuppression (WBC): not statistically significant
[8]; stated with the rat AUC results
  metabolism via N-dechloroethylation, compared to (R)-IFF: metabolized to a greater extent
[2]; 150 mg/kg
  lethality (rats dead of rats treated): 0 of 4
[2]; 100 and 125 mg/kg, listed as (S)-ifosfamide
  lethality (rats dead of rats treated): 0 of 5
[12]
  plasma pharmacokinetics, differences: No statistically significant differences
[5]
  efficacy against HxRh28 xenograft, difference between stereoisomers: no statistically significant differences
[6]; 125 mg/kg, chi-square
  toxic deaths, compared to (R,S)-IFF: no difference
[6]; 100 mg/kg
  toxic deaths (of animals treated): 0 of 5
[6]; 125 mg/kg
  toxic deaths (of animals treated): 2 of 10
[6]; 150 mg/kg, listed as (S)-ifosfamide
  toxic deaths (of animals treated): 3 of 5
[13]
  origin of side-chain metabolites in urine: side-chain metabolites come from S-ifosfamide more than from R-ifosfamide
[9]; racemic ifosfamide incubated
  2 and 3-dechloro metabolites produced, compared to R-ifosfamide: greater amounts
[9]
  2 and 3-dechloro metabolites produced, R and S-ifosfamide incubated separately: broadly the same
platelets; non-tumor-bearing rats
  thrombocytopenia: significant thrombocytopenia
platelets; tumor-bearing rats, 125 mg/kg i.v.
  platelet suppression compared to (R)- or (R,S)-ifosfamide: significantly less
[14]
  excretion of dechloroethylated metabolites from S-ifosfamide: much higher excretion
